EC50 and inhibition data for 50 compounds are collected here from patent publication US6573262B2, “Composition and antiviral activity of substituted indoleoxoacetic piperazine derivatives” (priority 2000, dated 2003).

A value given as a limit tells only on which side of the number the result lay.

For orientation: EC50 means the concentration needed to bring the measured effect to its halfway point. Broadly, the inhibition is the share of the control response that was lost under treatment.

The subject of this experiment is HIV-1 single-round infectious reporter virus. The experiment can be described thus: microbe, parasite or virus in culture. Particulars: for EC50: Human immunodeficiency virus 1, HeLa-CD4/CCR5, 72 h, read-out: EC50 Group from Table 1; for inhibition at 10 µM: Human immunodeficiency virus 1, HeLa-CD4/CCR5, read-out: % Inhibition @ 10 uM. It is filed as cell-based.

As for `O=C(C(=O)N1CCN(C(=O)c2ccccc2)CC1)c1c[nH]c2c(-c3ccccc3)ccc(F)c12` [Example 1], the EC50 was < 1000 nM and the inhibition at 10 µM was > 98%.
The like results for `CSc1ccccc1-c1ccc(F)c2c(C(=O)C(=O)N3CCN(C(=O)c4ccccc4)CC3)c[nH]c12` [Example 2] were, in that order, < 1000 nM and > 98%.
Regarding `COc1ccc(-c2ccc(F)cc2)c2[nH]cc(C(=O)C(=O)N3CCN(C(=O)c4ccccc4)CC3)c12` [Example 3], the EC50 is < 1000 nM and the inhibition at 10 µM is > 98%.
Taken in the same sequence, the figures for `COc1ccc(-c2ccc(F)c3c(C(=O)C(=O)N4CCN(C(=O)c5ccccc5)CC4)c[nH]c23)cc1` [Example 4] were < 1000 nM and > 98%.
Taken in the same sequence, the figures for `O=C(C(=O)N1CCN(C(=O)c2ccccc2)CC1)c1c[nH]c2c(-c3ccccn3)ccc(F)c12` [Example 5] were < 1000 nM and > 98%.
Taken in the same sequence, the figures for `O=C(C(=O)N1CCN(C(=O)c2ccccc2)CC1)c1c[nH]c2c(-c3cccnc3)ccc(F)c12` [Example 6] were < 1000 nM and > 98%.
On to `COc1ccc(-c2ccccn2)c2[nH]cc(C(=O)C(=O)N3CCN(C(=O)c4ccccc4)CC3)c12` [Example 7], for which the EC50 is < 1000 nM and the inhibition at 10 µM is > 98%.
For `COc1ccc(-c2cccnc2)c2[nH]cc(C(=O)C(=O)N3CCN(C(=O)c4ccccc4)CC3)c12` [Example 8], the EC50 was < 1000 nM and the inhibition at 10 µM was > 98%.
The like results for `O=C(C(=O)N1CCN(C(=O)c2ccccc2)CC1)c1c[nH]c2c(-c3cncnc3)ccc(F)c12` [Example 9] were, in that order, < 1000 nM and > 98%.
In the case of `COc1ccc(-c2ccco2)c2[nH]cc(C(=O)C(=O)N3CCN(C(=O)c4ccccc4)CC3)c12` [Example 11], the EC50 is < 1000 nM and the inhibition at 10 µM was > 98%.
For `O=C(C(=O)N1CCN(C(=O)c2ccccc2)CC1)c1c[nH]c2c(-c3cccs3)ccc(F)c12` [Example 12], the EC50 was < 1000 nM and the inhibition at 10 µM is > 98%.
Regarding `O=C(C(=O)N1CCN(C(=O)c2ccccc2)CC1)c1c[nH]c2c(-c3ccsc3)ccc(F)c12` [Example 13], the EC50 was < 1000 nM and the inhibition at 10 µM was > 98%.
The like results for `O=C(C(=O)N1CCN(C(=O)c2ccccc2)CC1)c1c[nH]c2c(-c3nccs3)ccc(F)c12` [Example 14] were, in that order, < 1000 nM and > 98%.
Taken in the same sequence, the figures for `COc1ccc(-c2nccs2)c2[nH]cc(C(=O)C(=O)N3CCN(C(=O)c4ccccc4)CC3)c12` [Example 15] were < 1000 nM and > 98%.
Taken in the same sequence, the figures for `O=C(C(=O)N1CCN(C(=O)c2ccccc2)CC1)c1c[nH]c2c(-c3ccc(Cl)s3)ccc(F)c12` [Example 16] were < 1000 nM and > 98%.
As to `O=C(C(=O)N1CCN(C(=O)c2ccccc2)CC1)c1c[nH]c2c(-c3cnco3)ccc(F)c12` [Example 17], the EC50 is < 1000 nM and the inhibition at 10 µM is > 98%.
Taken in the same sequence, the figures for `O=C(C(=O)N1CCN(C(=O)c2ccccc2)CC1)c1c[nH]c2c(-c3nc4ccccc4o3)ccc(F)c12` [Example 18] were < 1000 nM and > 98%.
Taken in the same sequence, the figures for `COc1ccc(-c2cc3ccccc3s2)c2[nH]cc(C(=O)C(=O)N3CCN(C(=O)c4ccccc4)CC3)c12` [Example 19] were < 1000 nM and > 98%.
Taken in the same sequence, the figures for `O=C(C(=O)N1CCN(C(=O)c2ccccc2)CC1)c1c[nH]c2c(-c3nn[nH]n3)ccc(F)c12` [Example 20] were < 1000 nM and > 98%.
For `Cn1nnc(-c2ccc(F)c3c(C(=O)C(=O)N4CCN(C(=O)c5ccccc5)CC4)c[nH]c23)n1` [Example 21], the EC50 was < 1000 nM and the inhibition at 10 µM is > 98%.
In the case of `COC(=O)Cn1nnc(-c2ccc(F)c3c(C(=O)C(=O)N4CCN(C(=O)c5ccccc5)CC4)c[nH]c23)n1` [Example 22], the EC50 was < 1000 nM and the inhibition at 10 µM is > 98%.
Taken in the same sequence, the figures for `CCn1nnc(-c2ccc(F)c3c(C(=O)C(=O)N4CCN(C(=O)c5ccccc5)CC4)c[nH]c23)n1` [Example 23] were < 1000 nM and > 98%.
The like results for `CCCn1nnc(-c2ccc(F)c3c(C(=O)C(=O)N4CCN(C(=O)c5ccccc5)CC4)c[nH]c23)n1` [Example 24] were, in that order, < 1000 nM and > 98%.
For the compound `O=C(C(=O)N1CCN(C(=O)c2ccccc2)CC1)c1c[nH]c2c(-c3nnn(Cc4ccccc4)n3)ccc(F)c12` [Example 25], the EC50 is < 1000 nM and the inhibition at 10 µM was > 98%.
As to `C=CCn1nnc(-c2ccc(F)c3c(C(=O)C(=O)N4CCN(C(=O)c5ccccc5)CC4)c[nH]c23)n1` [Example 26], the EC50 was < 1000 nM and the inhibition at 10 µM was > 98%.
The like results for `N/C(=N\O)c1ccc(F)c2c(C(=O)C(=O)N3CCN(C(=O)c4ccccc4)CC3)c[nH]c12` [Example 27] were, in that order, < 1000 nM and > 98%.
`O=C(C(=O)N1CCN(C(=O)c2ccccc2)CC1)c1c[nH]c2c(-c3noc(=O)[nH]3)ccc(F)c12` [Example 28]: the EC50 is < 1000 nM and the inhibition at 10 µM is > 98%.
Taken in the same sequence, the figures for `COc1nc(-c2ccc(F)c3c(C(=O)C(=O)N4CCN(C(=O)c5ccccc5)CC4)c[nH]c23)no1` [Example 29] were < 1000 nM and > 98%.
Taken in the same sequence, the figures for `O=C(C(=O)N1CCN(C(=O)c2ccccc2)CC1)c1c[nH]c2c(/C=N/O)ccc(F)c12` [Example 30] were < 1000 nM and > 98%.
The like results for `O=C(O)CO/N=C/c1ccc(F)c2c(C(=O)C(=O)N3CCN(C(=O)c4ccccc4)CC3)c[nH]c12` [Example 31] were, in that order, < 1000 nM and > 98%.
With `O=C(C(=O)N1CCN(C(=O)c2ccccn2)CC1)c1c[nH]c2c(-c3nn[nH]n3)ccc(F)c12` [Example 32], the EC50 is < 1000 nM and the inhibition at 10 µM was > 98%.
The like results for `C[C@@H]1CN(C(=O)c2ccccc2)CCN1C(=O)C(=O)c1c[nH]c2c(-c3nn[nH]n3)ccc(F)c12` [Example 33] were, in that order, < 1000 nM and > 98%.
The like results for `C[C@@H]1CN(C(=O)c2ccccn2)CCN1C(=O)C(=O)c1c[nH]c2c(-c3nn[nH]n3)ccc(F)c12` [Example 34] were, in that order, < 1000 nM and > 98%.
The like results for `O=C(Nc1cccnc1)c1ccc(F)c2c(C(=O)C(=O)N3CCN(C(=O)c4ccccc4)CC3)c[nH]c12` [Example 35] were, in that order, < 1000 nM and > 98%.
In the case of `O=C(NC1=NCCS1)c1ccc(F)c2c(C(=O)C(=O)N3CCN(C(=O)c4ccccc4)CC3)c[nH]c12` [Example 36], the concentration giving a half-maximal response (EC50) is < 1000 nM and the inhibition at 10 µM is > 98%.
Consider `Cc1cc(NC(=O)c2ccc(F)c3c(C(=O)C(=O)N4CCN(C(=O)c5ccccc5)CC4)c[nH]c23)on1` [Example 37], for which the EC50 was < 1000 nM and the inhibition at 10 µM is > 98%.
The like results for `O=C(Nc1ccccn1)c1ccc(F)c2c(C(=O)C(=O)N3CCN(C(=O)c4ccccc4)CC3)c[nH]c12` [Example 38] were, in that order, < 1000 nM and > 98%.
The like results for `O=C(Nc1ccncc1)c1ccc(F)c2c(C(=O)C(=O)N3CCN(C(=O)c4ccccc4)CC3)c[nH]c12` [Example 39] were, in that order, < 1000 nM and > 98%.
Taken in the same sequence, the figures for `O=C(NS(=O)(=O)c1ccccc1)c1ccc(F)c2c(C(=O)C(=O)N3CCN(C(=O)c4ccccc4)CC3)c[nH]c12` [Example 40] were < 1000 nM and > 98%.
Regarding `O=C(Nc1nc2ccccc2[nH]1)c1ccc(F)c2c(C(=O)C(=O)N3CCN(C(=O)c4ccccc4)CC3)c[nH]c12` [Example 41], the EC50 is < 1000 nM and the inhibition at 10 µM is > 98%.
`NC(=O)c1ccc(F)c2c(C(=O)C(=O)N3CCN(C(=O)c4ccccc4)CC3)c[nH]c12` [Example 42]: the EC50 is < 1000 nM and the inhibition at 10 µM is > 98%.
The like results for `CN(C)CCNC(=O)c1ccc(F)c2c(C(=O)C(=O)N3CCN(C(=O)c4ccccc4)CC3)c[nH]c12` [Example 44] were, in that order, < 1000 nM and 97%.
The like results for `O=C(NCc1ccccc1)c1ccc(F)c2c(C(=O)C(=O)N3CCN(C(=O)c4ccccc4)CC3)c[nH]c12` [Example 45] were, in that order, < 1000 nM and > 98%.
Taken in the same sequence, the figures for `CONC(=O)c1ccc(F)c2c(C(=O)C(=O)N3CCN(C(=O)c4ccccc4)CC3)c[nH]c12` [Example 46] were < 1000 nM and > 98%.
As to `CNC(=O)c1ccc(F)c2c(C(=O)C(=O)N3CCN(C(=O)c4ccccc4)CC3)c[nH]c12` [Example 47], the EC50 was < 1000 nM and the inhibition at 10 µM is > 98%.
The like results for `O=C(NCCc1c[nH]c2ccccc12)c1ccc(F)c2c(C(=O)C(=O)N3CCN(C(=O)c4ccccc4)CC3)c[nH]c12` [Example 48] were, in that order, < 1000 nM and > 98%.
Turning to `O=C(NCCc1c[nH]cn1)c1ccc(F)c2c(C(=O)C(=O)N3CCN(C(=O)c4ccccc4)CC3)c[nH]c12` [Example 49], the EC50 is < 1000 nM and the inhibition at 10 µM is > 98%.
As to `O=C(NCc1ccco1)c1ccc(F)c2c(C(=O)C(=O)N3CCN(C(=O)c4ccccc4)CC3)c[nH]c12` [Example 50], the EC50 is < 1000 nM and the inhibition at 10 µM was > 98%.
For `O=C(NCc1cccs1)c1ccc(F)c2c(C(=O)C(=O)N3CCN(C(=O)c4ccccc4)CC3)c[nH]c12` [Example 51], the EC50 is < 1000 nM and the inhibition at 10 µM was > 98%.
The like results for `O=C(NCCN1CCOCC1)c1ccc(F)c2c(C(=O)C(=O)N3CCN(C(=O)c4ccccc4)CC3)c[nH]c12` [Example 52] were, in that order, < 1000 nM and > 98%.
